The values that follow are results of earlier work, collected in patent US9090495B2, “Slow release tablet composition for treating industrial water systems” (AMSA, Inc., priority 2009, dated 2015).

SMILES strings stand for the structures.

For series [1] the following is noted: alkaline pH, such as pH~9, industrial water system conditions.
For series [2] the following is noted: typical cooling tower system; composition of U.S. Pat. No. 4,816,061.

On to `N#CC(Br)(Br)C(N)=O` [DBNPA, 2,2-dibromo-3-nitrilopropionamide], for which the Time to degradation entry in series [1] is listed as “a few minutes”.

On to `CCCCCCCCCCSCCN` [n-decylthioethylamine], for which the “Duration of effectiveness of a typical dose” value in series [2] was 1 to 1.5 days.
